The target of one experiment is HCV NS5B RNA-dependent RNA polymerase (Hepatitis C virus genotype 1b, UniProt P26663). Briefly: In vitro RNA-dependent RNA polymerase assay (Assay 1), polyA/oligo dT, TCA precipitation. The experiment is classed as biochemical.
HCV NS5B RNA-dependent RNA polymerase, sequence (P26663 2420-3010 limits assumed): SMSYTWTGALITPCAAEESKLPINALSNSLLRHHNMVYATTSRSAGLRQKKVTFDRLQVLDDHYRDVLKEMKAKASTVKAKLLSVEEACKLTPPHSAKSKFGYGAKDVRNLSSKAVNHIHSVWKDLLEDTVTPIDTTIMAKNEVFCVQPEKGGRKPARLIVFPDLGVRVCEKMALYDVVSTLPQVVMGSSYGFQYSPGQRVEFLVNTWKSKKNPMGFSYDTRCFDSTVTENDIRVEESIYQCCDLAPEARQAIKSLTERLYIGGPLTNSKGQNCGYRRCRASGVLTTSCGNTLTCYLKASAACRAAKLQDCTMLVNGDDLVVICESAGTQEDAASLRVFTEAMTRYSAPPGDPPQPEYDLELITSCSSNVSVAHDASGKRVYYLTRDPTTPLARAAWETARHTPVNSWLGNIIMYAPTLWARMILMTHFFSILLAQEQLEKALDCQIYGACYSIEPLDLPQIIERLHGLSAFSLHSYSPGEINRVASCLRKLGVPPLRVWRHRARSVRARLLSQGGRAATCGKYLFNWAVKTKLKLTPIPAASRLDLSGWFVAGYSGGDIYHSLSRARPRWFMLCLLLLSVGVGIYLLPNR
Conditions: not given
Here is the method:
Purification of Recombinant NS5B Using Fast Protein Liquid Chromatography (FPLC):
Soluble NS5B protein in the S3 fraction was diluted to lower the NaCl concentration to 300 mM, then it incubated batchwise with DEAE sepharose beads (Amersham-Pharmacia) for 2 hrs at 4° C., as described by Behrens et al. (1996). Unbound material was cleared by centrifugation for 15 min at 4° C., at 25,000 rpm using a SW41 rotor (Beckman). The supernatant was further diluted to lower the NaCl concentration to 200 mM and subsequently loaded, with a flow rate of 1 ml/min, on a 5 ml HiTrap® heparin column (Amersham-Pharmacia) connected to an FPLC® system (Amersham-Pharmacia). Bound proteins were eluted in 1 ml fractions, using a continuous NaCl gradient of 0.2 to 1 M, over a 25 ml volume. NS5B-containing fractions were identified by sodium dodecyl sulfate polyacrylamide gel electrophoresis (SDS-PAGE), followed by western blotting using the anti-NS5B antiserum at a dilution of 1:2000. Positive fractions were pooled and the elution buffer was exchanged against a 50 mM NaPO4 pH 7.0, 20% glycerol, 0.5% triton X-100 and 10 mM DTT, using a PD-10 column (Amersham-Pharmacia). The sample was then loaded onto a 1 ml HiTrap® SP column (Amersham-Pharmacia), with a flow rate of 0.1 ml/min. Bound proteins were eluted using a continuous 0 to 1 M NaCl gradient over a 15 ml volume. Eluted fractions were analyzed by SDS-PAGE and western blotting. Alternatively, proteins were visualized, following SDS-PAGE, by silver staining using the Silver Stain Plus kit (BioRad) as described by the manufacturer. […]
In vitro RNA-dependent RNA Polymerase Assays Used to Evaluate Biaryl Analogues (Assay 1):
RdRp assays were conducted using the homopolymeric template/primer polyA/oligo dT. All RdRp reactions were performed in a total volume of 50 μl, and in a basic buffer consisting of 20 mM Tris-HCl pH 7.5, 1 mM DTT, 50 mM NaCl, 5 mM MgCl2, 0.5 μCi […] (3000 Ci/mmol), 15 μM cold UTP and 20 U RNasin (Promega). Standard HCV RdRp reactions contained 200 ng of purified NS5B protein. PolyA RNAs (Amersham-Pharmacia) was resuspended at 400 ng/μl. The primer oligodT15 (Canadian life technologies) was diluted to a concentration of […] (7.6 ng/μl). Templates and primers were mixed volume to volume, denatured at 95° C. for 5 min and annealed at 37° C. for 10 min. Following a two hour incubation at 22° C., reactions were stopped by the addition of 100 μg of sonicated salmon sperm DNA (Life Technologies) and 1 ml of 10% trichloroacetic acid-0.5% tetrasodium pyrophosphate (TCA-PPi). Nucleic acids were precipitated at 4° C. for 30 min after which samples were filtered on GF/C glass microfiber filters (Millipore). Membranes were subsequently washed with 25 ml of a 1% TCA-0.1% PPi solution, then air dried. Incorporated radioactivity was quantified using a liquid scintillation counter (1450-Microbeta, Wallac). Results are shown in Table 1, in the column indicated as Assay 1.
What is called IC50 is the point on the concentration scale where inhibition reaches its midpoint. `O=C(O)[C@H](Cc1ccccc1)N(Cc1cccc(Br)c1)C(=O)c1ccc(Cl)cc1Br` [compound #36, (2s)-2-[(3-Bromo-benzyl)-(2-bromo-4-chloro-benzoyl)-amino]-3-phenyl-propionic acid] gave a half-inhibitory concentration (IC50) of less than 5 µM.
As for `Cc1cc(Cl)ccc1C(=O)N(Cc1cccc(-c2cc3ccccc3o2)c1)[C@@H](Cc1ccccc1)C(=O)O` [compound #48, (2s)-2-[(3-Benzofuran-2-yl-benzyl)-(4-chloro-2-methyl-benzoyl)-amino]-3-phenyl-propionic acid], the half-inhibitory concentration (IC50) was less than 5 µM.

The same experiment, now with this note: polyA/oligo dT template/primer, 200 ng NS5B, 2 h at 22° C.; read-out: RNA pol Assay 1 IC50 (μm).
For the compound `O=C(O)[C@H](Cc1ccccc1)N(Cc1cccs1)C(=O)c1ccc(Cl)cc1Cl` [compound #98, (2s)-2-[(2,4-Dichloro-benzoyl)-thiophen-2-ylmethyl-amino]-3-phenyl-propionic acid], the half-inhibitory concentration (IC50) was less than 5 µM.
On the same count and under the same terms, in the case of `COc1ccc(-c2csc(CN(C(=O)c3ccc(Cl)cc3Cl)[C@@H](Cc3ccccc3)C(=O)O)c2)cc1` [compound #136, (2s)-2-{(2,4-Dichloro-benzoyl)-[4-(4-methoxy-phenyl)-thiophen-2-ylmethyl]-amino}-3-phenyl-propionic acid] it was less than 5 µM.
`COc1cc(C)c(S(=O)(=O)N(Cc2ccc(-c3cc4ccccc4o3)cc2)C(Cc2ccccc2)C(=O)O)c(C)c1C` (stereo in doubt) [compound #6, (2s)-2-[(4-Benzofuran-2-yl-benzyl)-(4-methoxy-2,3,6-trimethyl-benzenesulfonyl)-amino]-3-phenyl-propionic acid]: the concentration for half-maximal inhibition (IC50) was less than 5 µM.
The same measure, in the same setting: in the case of `O=C(O)CC(c1cccs1)N(Cc1ccc(-c2cccs2)cc1)C(=O)Nc1cc(Cl)nc(Cl)c1` (stereo not drawn) [compound #1, 3-[3-(2,6-Dichloro-pyridin-4-yl)-1-(4-thiophen-2-yl-benzyl)-ureido]-3-thiophen-2-yl-propionic acid] it was 5 to 20 µM.
Still for that read-out and setting: in the case of `Cc1cccc(-c2ccc(CN(C(=O)c3ccc(Cl)cc3Cl)[C@@H](Cc3ccccc3)C(=O)O)o2)c1` [compound #80, (2s)-2-[(2,4-Dichloro-benzoyl)-(5-m-tolyl-furan-2-ylmethyl)-amino]-3-phenyl-propionic acid] it was less than 5 µM; in that of `COc1cc(C)c(S(=O)(=O)N(Cc2ccc(-c3cc4ccccc4o3)cc2)[C@@H](Cc2ccc(O)cc2)C(=O)O)c(C)c1C` [compound #32, (2s)-2-[(4-Benzofuran-2-yl-benzyl)-(4-methoxy-2,3,6-trimethyl-benzenesulfonyl)-amino]-3-(4-hydroxy-phenyl)-propionic acid], less than 5 µM.
Turning to `Cc1ccc(C(=O)N(Cc2cccc(Br)c2)[C@@H](Cc2ccccc2)C(=O)O)c(C)c1` [compound #28, (2s)-2-[(3-Bromo-benzyl)-(2,4-dimethyl-benzoyl)-amino]-3-phenyl-propionic acid], the IC50 is less than 5 µM.
In the case of `O=C(O)[C@H](Cc1ccccc1)N(Cc1ccc(-c2cccc(F)c2)s1)C(=O)c1ccc(Cl)cc1Cl` [compound #97, (2s)-2-{(2,4-Dichloro-benzoyl)-[5-(3-fluoro-phenyl)-thiophen-2-ylmethyl]-amino}-3-phenyl-propionic acid], the IC50 is less than 5 µM.
As to `O=C(O)[C@H](Cc1ccccc1)N(Cc1ccc(-c2cccc(F)c2)o1)C(=O)c1ccc(Cl)cc1Cl` [compound #81, (2s)-2-{(2,4-Dichloro-benzoyl)-[5-(3-fluoro-phenyl)-furan-2-ylmethyl]-amino}-3-phenyl-propionic acid], the IC50 was less than 5 µM.
The same measure, in the same setting: in the case of `Cc1cc(Cl)ccc1C(=O)N(Cc1cccc(Br)c1)[C@@H](Cc1ccccc1)C(=O)O` [compound #34, (2s)-2-[(3-Bromo-benzyl)-(4-chloro-2-methyl-benzoyl)-amino]-3-phenyl-propionic acid] it was less than 5 µM.
Consider `O=C(O)[C@H](Cc1ccccc1)N(Cc1ccc(-c2ccc(F)c(Cl)c2)o1)C(=O)c1ccc(Cl)cc1Cl` [compound #69, (2s)-2-[[5-(3-Chloro-4-fluoro-phenyl)-furan-2-ylmethyl]-(2,4-dichloro-benzoyl)-amino]-3-phenyl-propionic acid], for which the IC50 was less than 5 µM.
`O=C(O)[C@H](Cc1ccccc1)N(Cc1ccc(-c2ccc(Cl)c(F)c2)s1)C(=O)c1ccc(Cl)cc1Cl` [compound #92, (2s)-2-[[5-(4-chloro-3-fluoro-phenyl)-thiophen-2-ylmethyl]-(2,4-dichloro-benzoyl)-amino]-3-phenyl-propionic acid]: the half-maximal inhibitory concentration (IC50) was less than 5 µM.
The same measure, in the same setting: in the case of `O=C(O)[C@H](Cc1ccc(O)cc1)N(Cc1ccc(-c2cc3ccccc3o2)cc1)C(=O)c1ccc(Cl)cc1Cl` [compound #33, (2s)-2-[(4-Benzofuran-2-yl-benzyl)-(2,4-dichloro-benzoyl)-amino]-3-(4-hydroxy-phenyl)-propionic acid] it was less than 5 µM; in that of `C=Cc1cc(Cl)ccc1C(=O)N(Cc1cccc(Br)c1)[C@@H](Cc1ccccc1)C(=O)O` [compound #50, (2s)-2-[(3-Bromo-benzyl)-(4-chloro-2-vinyl-benzoyl)-amino]-3-phenyl-propionic acid], less than 5 µM; in that of `COc1cc(C)c(S(=O)(=O)N(Cc2cccc(-c3cc4ccccc4o3)c2)[C@@H](Cc2ccccc2)C(=O)O)c(C)c1C` [compound #7, (2s)-2-[(3-Benzofuran-2-yl-benzyl)-(4-methoxy-2,3,6-trimethyl-benzenesulfonyl)-amino]-3-phenyl-propionic acid], less than 5 µM.
The same measure, in the same setting: in the case of `O=C(O)[C@H](Cc1ccccc1)N(Cc1cc(-c2ccc(F)c(Cl)c2)cs1)C(=O)c1ccc(Cl)cc1Cl` [compound #89, (2s)-2-[[4-(3-Chloro-4-fluoro-phenyl)-thiophen-2-ylmethyl]-(2,4-dichloro-benzoyl)-amino]-3-phenyl-propionic acid] it was less than 5 µM; in that of `COc1cc(C)c(S(=O)(=O)N(Cc2c(C(F)(F)F)nn(C)c2Oc2ccc(Cl)cc2Cl)[C@@H](Cc2ccccc2)C(=O)O)c(C)c1C` [compound #106, (2s)-2-[[5-(2,4-Dichloro-phenoxy)-1-methyl-3-trifluoromethyl-1h-pyrazol-4-ylmethyl]-(4-methoxy-2,3,6-trimethyl-benzenesulfonyl)-amino]-3-phenyl-propionic acid], 5 to 20 µM; in that of `O=C(O)[C@H](Cc1ccccc1)N(Cc1ccc(-c2cccc(C(F)(F)F)c2)o1)C(=O)c1ccc(Cl)cc1Br` [compound #78, (2s)-2-{(2-Bromo-4-chloro-benzoyl)-[5-(3-trifluoromethyl-phenyl)-furan-2-ylmethyl]-amino}-3-phenyl-propionic acid], less than 5 µM.
On the same count and under the same terms, in the case of `COC(=O)c1ccc(-c2ccc(CN([C@@H](Cc3ccccc3)C(=O)O)S(=O)(=O)c3c(C)cc(OC)c(C)c3C)cc2)s1` [compound #23, (2s)-5-(4-{[(1s-1-Carboxy-2-phenyl-ethyl)-(4-methoxy-2,3,6-trimethyl-benzenesulfonyl)-amino]-methyl}-phenyl)-thiophene-2-carboxylic acid methyl ester] it was more than 20 µM; in that of `CCOC(=O)c1ccccc1-c1ccc(CN(C(=O)c2ccc(Cl)cc2Cl)[C@@H](Cc2ccccc2)C(=O)O)o1` [compound #72, (2s)-2-(5-{[(1s-1-Carboxy-2-phenyl-ethyl)-(2,4-dichloro-benzoyl)-amino]-methyl}-furan-2-yl)-benzoic acid ethyl ester], less than 5 µM.
On to `COc1ccc(-c2ccc(CN(C(=O)c3ccc(Cl)cc3Cl)[C@@H](Cc3ccccc3)C(=O)O)s2)cc1` [compound #135, (2s)-2-{(2,4-Dichloro-benzoyl)-[5-(4-methoxy-phenyl)-thiophen-2-ylmethyl]-amino}-3-phenyl-propionic acid], for which the 50% inhibitory concentration (IC50) was less than 5 µM.
Same read-out and setting: in the case of `O=C(O)[C@H](Cc1ccccc1)N(Cc1ccc(-c2ccc(Br)cc2)o1)C(=O)c1ccc(Cl)cc1Cl` [compound #59, (2s)-2-[[5-(4-Bromo-phenyl)-furan-2-ylmethyl]-(2,4-dichloro-benzoyl)-amino]-3-phenyl-propionic acid] it was less than 5 µM.

Source of the values: patent US20030229053A1, “Compounds and methods for the treatment or prevention of flavivirus infections” (Shire BioChem Inc., priority 2001, published 2003).
